Measurements: patent US9067934B2, “Bicyclic pyridinones” (Pfizer Inc., priority 2011, dated 2015)
Counter-ions that a name gives are not always drawn.

System: production of amyloid beta protein Aβ(1-42) (γ-secretase) in human WT-APP overexpressing CHO cells
Assay: Cell-Based γ-Secretase Assay with ELISA Readout
Details: human WT-APP overexpressing CHO cells, ~24 hours at 37° C., Aβ(1-42) ELISA; footnotes: a = geometric mean of >15 determinations, b = single determination, c = geometric mean of 7-15 determinations; read-out: Aβ 42B IC50 (Geometric Mean of 2-6 Determinations)
Method: Cell-Based γ-Secretase Assay with ELISA Readout
The ability of compounds to modulate production of amyloid beta protein Aβ(1-42) was determined using human WT-APP overexpressing CHO cells. Cells were plated at 22,000 cells/100 μL well in 96 well tissue culture treated, clear plates (Falcon) in DMEM/F12 based medium and incubated for 24 hours at 37° C. Compounds for testing were diluted in 100% DMSO to achieve an eleven points, half log, dose response for IC50 determinations. Compounds were added in fresh medium to achieve 1% final DMSO. Appropriate vehicle or inhibitor controls were added into control wells individually to obtain minimum or maximum inhibition values, respectively, for the assay signal window before the plates were incubated for ˜24 hours at 37° C. This procedure produces conditioned media in each well which is tested for Aβ(1-42) levels in the ELISA detection step described next. The remaining cell cultures in each well are also tested for cell toxicity as described below.
Coating of ELISA assay plates was initiated by addition of 50 μL/well of an in-house Aβ(1-42) specific antibody at (3 μg/mL) in 0.1 M NaHCO3 (pH 9.0) into black 384-well Maxisorp® plates (Nunc) and incubated overnight at 4° C. The capture antibody was then aspirated from the ELISA assay plates and plates were washed 4×100 μL with Wash Buffer (Dulbecco's PBS, 0.05% Tween 20). 90 μL/well of Blocking Buffer (Dulbecco's PBS, 1.0% BSA (Sigma A7030)) was then added to plates. Ambient temperature incubation was allowed to proceed for a minimum of two hours. Blocking buffer was then removed and 20 μL/well Assay Buffer (Dulbecco's PBS, 1.0% BSA (Sigma A7030), 0.05% Tween 20) was then added. At this point, 40 μL (in duplicate) of experimental conditioned media (described above) were transferred into wells of the blocked ELISA plates containing the capture antibody, followed by overnight incubation at 4° C. Cell toxicity was also measured in the corresponding remaining cells after removal of the conditioned media for the Aβ(1-42) assay by a colorimetric cell proliferation assay (CellTiter 96® AQueous One Solution Cell Proliferation Assay, Promega) according to the manufacturer's instructions.
After overnight incubation of the ELISA assay plates at 4° C., unbound Aβ peptides were removed via (4×100 μL) washes with Wash Buffer. Europium (Eu) labeled (custom labeled, Perkin Elmer) Aβ(1-16) 6e10 Monoclonal Antibody (Covance #SIG-39320) was added, (50 μL/well Eu-6e10 @ 1:10,000, 20 uM EDTA) in Assay Buffer. Incubation at ambient temperature for a minimum of 2 hours was followed by (4×100 μL) washes with Wash Buffer, before 30 μL/well of Delfia Enhancement Solution (Perkin Elmer) was added. Following an one hour ambient temperature incubation, the plates were read on an EnVision plate reader (Perkin Elmer) using standard DELFIA TRF settings. Data analysis including inhibitory IC50 determination was performed using nonlinear regression fit analysis (in-house software) and the appropriate plate mean values for the maximum and minimum inhibition controls.

Which IC50 does the source give for `Cc1cn(-c2ccc3n(c2=O)CCN(CCOc2cccc4c(Cl)ccc(Cl)c24)C3=O)cn1` [Example 46, 2-{2-[(5,8-dichloro-1-naphthyl)oxy]ethyl}-7-(4-methyl-1H-imidazol-1-yl)-3,4-dihydro-2H-pyrido[1,2-a]pyrazine-1,6-dione, trifluoroacetate salt] here?
The IC50 was 9.38 nM.

With `Cc1cn(-c2ccc3n(c2=O)CCN(CCOc2ccnc4cc(C(F)(F)F)c(Cl)cc24)C3=O)cn1` [Example 47, 2-(2-{[6-chloro-7-(trifluoromethyl)quinolin-4-yl]oxy}ethyl)-7-(4-methyl-1H-imidazol-1-yl)-3,4-dihydro-2H-pyrido[1,2-a]pyrazine-1,6-dione] as the compound, how does the IC50 read?
Its IC50 is 9.48 nM.

For `Cc1cn(-c2ccc3n(c2=O)CCN(CCOc2ccc(F)cc2-c2ccnc(C(F)(F)F)c2)C3=O)cn1` [Example 48, 2-(2-{4-fluoro-2-[2-(trifluoromethyl)pyridin-4-yl]phenoxy}ethyl)-7-(4-methyl-1H-imidazol-1-yl)-3,4-dihydro-2H-pyrido[1,2-a]pyrazine-1,6-dione], which IC50 is on record?
Its IC50 is 143 nM.

`Cc1cn(-c2ccc3n(c2=O)CCN(CCOc2ccccc2-c2cc(C(F)(F)F)[nH]n2)C3=O)cn1` [Example 49, 7-(4-methyl-1H-imidazol-1-yl)-2-(2-{2-[5-(trifluoromethyl)-1H-pyrazol-3-yl]phenoxy}ethyl)-3,4-dihydro-2H-pyrido[1,2-a]pyrazine-1,6-dione] was tested. Which IC50 did it give?
Its IC50 is 178 nM.

Which IC50 does the source give for `Cc1cn(-c2ccc3n(c2=O)CCN(CCOc2ccc(Cl)cc2-n2ccc(C(F)(F)F)n2)C3=O)cn1` [Example 50, 2-(2-{4-chloro-2-[3-(trifluoromethyl)-1H-pyrazol-1-yl]phenoxy}ethyl)-7-(4-methyl-1H-imidazol-1-yl)-3,4-dihydro-2H-pyrido[1,2-a]pyrazine-1,6-dione, trifluoroacetate salt] here?
Its IC50 is 29.3 nM.

Which IC50 does the source give for `Cc1cn(-c2ccc3n(c2=O)CCN(CCOc2cc(C(F)(F)F)nc4c(C)ccc(Cl)c24)C3=O)cn1` [Example 51, 2-(2-{[5-chloro-8-methyl-2-(trifluoromethyl)quinolin-4-yl]oxy}ethyl)-7-(4-methyl-1H-imidazol-1-yl)-3,4-dihydro-2H-pyrido[1,2-a]pyrazine-1,6-dione] here?
Its IC50 is 20 nM.

With `Cc1cn(-c2ccc3n(c2=O)CCN(CCOc2ccc(F)cc2-c2csc(C(F)(F)F)n2)C3=O)cn1` [Example 52, 2-(2-{4-fluoro-2-[2-(trifluoromethyl)-1,3-thiazol-4-yl]phenoxy}ethyl)-7-(4-methyl-1H-imidazol-1-yl)-3,4-dihydro-2H-pyrido[1,2-a]pyrazine-1,6-dione] as the compound, how does the IC50 read?
Its IC50 is 23.5 nM.

Which IC50 does the source give for `Cc1cn(-c2ccc3n(c2=O)CCN(CCOc2cccc4cc(F)ccc24)C3=O)cn1` [Example 53, 2-{2-[(6-fluoro-1-naphthyl)oxy]ethyl}-7-(4-methyl-1H-imidazol-1-yl)-3,4-dihydro-2H-pyrido[1,2-a]pyrazine-1,6-dione, trifluoroacetate salt] here?
Its IC50 is 26.2 nM.

For `COc1ccc(-c2cc(C(F)(F)F)[nH]n2)c(OCCN2CCn3c(ccc(-n4cnc(C)c4)c3=O)C2=O)c1` [Example 54, 2-(2-{5-methoxy-2-[5-(trifluoromethyl)-1H-pyrazol-3-yl]phenoxy}ethyl)-7-(4-methyl-1H-imidazol-1-yl)-3,4-dihydro-2H-pyrido[1,2-a]pyrazine-1,6-dione], which IC50 is on record?
The IC50 was 215 nM.

`Cc1cn(-c2ccc3n(c2=O)CCN(C(C)COc2ccc(F)cc2C(F)(F)F)C3=O)cn1` (stereo not shown) [Example 55, 2-{2-[4-fluoro-2-(trifluoromethyl)phenoxy]-1-methylethyl}-7-(4-methyl-1H-imidazol-1-yl)-3,4-dihydro-2H-pyrido[1,2-a]pyrazine-1,6-dione, formate salt] was tested. Which IC50 did it give?
The IC50 was 168 nM.

How did the IC50 turn out when `Cc1cn(-c2ccc3n(c2=O)CCN(CCOc2cc(C(F)(F)F)nn2-c2ccc(F)cc2C)C3=O)cn1` [Example 56, 2-(2-{[1-(4-fluoro-2-methylphenyl)-3-(trifluoromethyl)-1H-pyrazol-5-yl]oxy}ethyl)-7-(4-methyl-1H-imidazol-1-yl)-3,4-dihydro-2H-pyrido[1,2-a]pyrazine-1,6-dione] was run?
Its IC50 is 399 nM.

`Cc1cn(-c2ccc3n(c2=O)CCN([C@@H](C)COc2ccc(F)cc2C(F)(F)F)C3=O)cn1` [Example 57, 2-{(1S)-2-[4-fluoro-2-(trifluoromethyl)phenoxy]-1-methylethyl}-7-(4-methyl-1H-imidazol-1-yl)-3,4-dihydro-2H-pyrido[1,2-a]pyrazine-1,6-dione] was tested. Which IC50 did it give?
Its IC50 is 113 nM.

Which IC50 does the source give for `Cc1cn(-c2ccc3n(c2=O)CCN(CCOc2ccccc2-c2cc(C(F)F)no2)C3=O)cn1` [Example 58, 2-(2-{2-[3-(difluoromethyl)isoxazol-5-yl]phenoxy}ethyl)-7-(4-methyl-1H-imidazol-1-yl)-3,4-dihydro-2H-pyrido[1,2-a]pyrazine-1,6-dione, trifluoroacetate salt] here?
The IC50 was 72.1 nM.

How did the IC50 turn out when `Cc1cn(-c2ccc3n(c2=O)CCN(CCOc2ccc(Cl)cc2-c2cc(C(F)(F)F)[nH]n2)C3=O)cn1` [Example 59, 2-(2-{4-chloro-2-[5-(trifluoromethyl)-1H-pyrazol-3-yl]phenoxy}ethyl)-7-(4-methyl-1H-imidazol-1-yl)-3,4-dihydro-2H-pyrido[1,2-a]pyrazine-1,6-dione] was run?
The IC50 was 530 nM.

For `COc1cccc2c(OCCN3CCn4c(ccc(-n5cnc(C)c5)c4=O)C3=O)cccc12` [Example 60, 2-{2-[(5-methoxy-1-naphthyl)oxy]ethyl}-7-(4-methyl-1H-imidazol-1-yl)-3,4-dihydro-2H-pyrido[1,2-a]pyrazine-1,6-dione, trifluoroacetate salt], which IC50 is on record?
Its IC50 is 33.3 nM.

`Cc1cn(-c2ccc3n(c2=O)CCN(CCOc2ccnc4cc(C(F)(F)F)ccc24)C3=O)cn1` [Example 61, 7-(4-methyl-1H-imidazol-1-yl)-2-(2-{[7-(trifluoromethyl)quinolin-4-yl]oxy}ethyl)-3,4-dihydro-2H-pyrido[1,2-a]pyrazine-1,6-dione] was tested. Which IC50 did it give?
The IC50 was 108 nM.

`Cc1cn(-c2ccc3n(c2=O)CCN(CCOc2cc(C(F)(F)F)nc4c(C)cc(Cl)cc24)C3=O)cn1` [Example 62, 2-(2-{[6-chloro-8-methyl-2-(trifluoromethyl)quinolin-4-yl]oxy}ethyl)-7-(4-methyl-1H-imidazol-1-yl)-3,4-dihydro-2H-pyrido[1,2-a]pyrazine-1,6-dione] was tested. Which IC50 did it give?
The IC50 was 39.7 nM.

How did the IC50 turn out when `Cc1cn(-c2ccc3n(c2=O)CCN(CCOc2cc(C(F)(F)F)nc4c(Cl)cccc24)C3=O)cn1` [Example 63, 2-(2-{[8-chloro-2-(trifluoromethyl)quinolin-4-yl]oxy}ethyl)-7-(4-methyl-1H-imidazol-1-yl)-3,4-dihydro-2H-pyrido[1,2-a]pyrazine-1,6-dione] was run?
The IC50 was 76.6 nM.

For `COc1ccc2c(OCCN3CCn4c(ccc(-n5cnc(C)c5)c4=O)C3=O)cccc2c1F` [Example 64, 2-{2-[(5-fluoro-6-methoxy-1-naphthyl)oxy]ethyl}-7-(4-methyl-1H-imidazol-1-yl)-3,4-dihydro-2H-pyrido[1,2-a]pyrazine-1,6-dione, trifluoroacetate salt], which IC50 is on record?
The IC50 was 42.4 nM.

Which IC50 does the source give for `Cc1cn(-c2ccc3n(c2=O)CCN(CCOc2ccccc2-c2ccc(C#N)c(C(F)(F)F)c2)C3=O)cn1` [Example 65, 2′-{2-[7-(4-methyl-1H-imidazol-1-yl)-1,6-dioxo-1,3,4,6-tetrahydro-2H-pyrido[1,2-a]pyrazin-2-yl]ethoxy}-3-(trifluoromethyl)biphenyl-4-carbonitrile] here?
Its IC50 is 46.1 nM.

For `Cc1cn(-c2ccc3n(c2=O)CCN(CCOc2cc(C(F)(F)F)nc4c(Cl)ccc(F)c24)C3=O)cn1` [Example 66, 2-(2-{[8-chloro-5-fluoro-2-(trifluoromethyl)quinolin-4-yl]oxy}ethyl)-7-(4-methyl-1H-imidazol-1-yl)-3,4-dihydro-2H-pyrido[1,2-a]pyrazine-1,6-dione], which IC50 is on record?
The IC50 was 52.4 nM.

For `Cc1cn(-c2ccc3n(c2=O)CCN(CCOc2ccc(F)c(Cl)c2C(F)(F)F)C3=O)cn1` [Example 67, 2-{2-[3-chloro-4-fluoro-2-(trifluoromethyl)phenoxy]ethyl}-7-(4-methyl-1H-imidazol-1-yl)-3,4-dihydro-2H-pyrido[1,2-a]pyrazine-1,6-dione], which IC50 is on record?
Its IC50 is 58.4 nM.
